Data: the supplement of paper PMC13380429

Experiments:
Conditions in all cases: 72 h
U2OS [1] = assay: cell viability relative to DMSO; higher = less toxic
Calu-3 [2] = assay: as above
Caco-2 [3] = assay: as above
HepG2 [4] = assay: as above
Vero E6 [5] = assay: as above
U2OS [6] = assay: drug sensitivity score (DSS) for viability; higher = more toxic; extreme values may be limits of the assay
Calu-3 [7] = assay: as above
Caco-2 [8] = assay: as above
HepG2 [9] = assay: as above
Vero E6 [10] = assay: as above
U2OS [11] = assay: relative viability EC50 (midpoint between 100% and the lowest measured viability); higher = less toxic
Calu-3 [12] = assay: as above
Caco-2 [13] = assay: as above
HepG2 [14] = assay: as above
Vero E6 [15] = assay: as above

Compound | cell viability (U2OS [1]; 1 nM) [%] | cell viability (U2OS [1]; 10 nM) [%] | cell viability (U2OS [1]; 100 nM) [%] | cell viability (U2OS [1]; 1000 nM) [%] | cell viability (U2OS [1]; 10000 nM) [%] | cell viability (Calu-3 [2]; 1 nM) [%] | cell viability (Calu-3 [2]; 10 nM) [%] | cell viability (Calu-3 [2]; 100 nM) [%] | cell viability (Calu-3 [2]; 1000 nM) [%] | cell viability (Calu-3 [2]; 10000 nM) [%] | cell viability (Caco-2 [3]; 1 nM) [%] | cell viability (Caco-2 [3]; 10 nM) [%] | cell viability (Caco-2 [3]; 100 nM) [%] | cell viability (Caco-2 [3]; 1000 nM) [%] | cell viability (Caco-2 [3]; 10000 nM) [%] | cell viability (HepG2 [4]; 1 nM) [%] | cell viability (HepG2 [4]; 10 nM) [%] | cell viability (HepG2 [4]; 100 nM) [%] | cell viability (HepG2 [4]; 1000 nM) [%] | cell viability (HepG2 [4]; 10000 nM) [%] | cell viability (Vero E6 [5]; 1 nM) [%] | cell viability (Vero E6 [5]; 10 nM) [%] | cell viability (Vero E6 [5]; 100 nM) [%] | cell viability (Vero E6 [5]; 1000 nM) [%] | cell viability (Vero E6 [5]; 10000 nM) [%] | drug sensitivity score (U2OS [6]) | drug sensitivity score (Calu-3 [7]) | drug sensitivity score (Caco-2 [8]) | drug sensitivity score (HepG2 [9]) | drug sensitivity score (Vero E6 [10]) | relative viability EC50 (U2OS [11]) [µM] | relative viability EC50 (Calu-3 [12]) [µM] | relative viability EC50 (Caco-2 [13]) [µM] | relative viability EC50 (HepG2 [14]) [µM] | relative viability EC50 (Vero E6 [15]) [µM]
CN(C)c1ccc(C(=O)NCCCCCCC(=O)NO)cc1 [M-344] | 99.2 | 94.6 | 93.9 | 47.2 | 1.1 | 101 | 93.7 | 77.2 | 55.3 | 13.6 | 101 | 99.4 | 103 | 75.6 | 1.5 | 106 | 92.8 | 80.2 | 37.9 | 0.3 | 97.5 | 101 | 92.1 | 56 | 0 | 11.7 | 11.8 | 9.2 | 14.4 | 10.6 | 0.891 | 0.581 | 1.56 | 0.504 | 1.14
Cc1cccc(C#Cc2ccccc2)n1 [MPEP] | 103 | 100 | 98.6 | 103 | 94 | 91.5 | 95.5 | 88.2 | 89.6 | 91.1 | 98.7 | 94.5 | 98.1 | 102 | 95 | 98.8 | 94.6 | 101 | 101 | 103 | 98.1 | 94.9 | 96.6 | 97.1 | 95 | 0 | 0.1 | 0 | 0 | 0 | > 10 | > 10 | > 10 | > 10 | > 10
CC(=O)NCCc1c[nH]c2ccccc12 [N-acetyltryptamine] | 95.4 | 102 | 94.5 | 99.3 | 101 | 92.8 | 96 | 94.3 | 105 | 99.4 | 93.5 | 94.7 | 99.4 | 96.5 | 102 | 105 | 95.7 | 97.1 | 103 | 104 | 97 | 92.4 | 99 | 91.4 | 107 | 0 | 0 | 0 | 0 | 0 | > 10 | > 10 | > 10 | > 10 | > 10
